Laboratory results published in patent US5488060A, “Substituted thiadiazoles, compositions containing them and their use as antimicrobial and marine antifouling agents” (The Dow Chemical Company, priority 1994, dated 1996).
Where two headings read alike, the source gives them in different places.

Experiments:
Type in all cases: cell-based
Bacillus subtilis (Bs) = assay: Minimum inhibitory concentration (MIC) in nutrient agar, Bacillus subtilis
Summary of the method: (§1)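 Test compound, as a 1% acetone–water solution, was mixed into molten nutrient agar (pH 6.8 or pH 8.2) at 48° C to final levels of 500 down to 1.0 ppm. Plates were dried 24 h, spot-inoculated with 10^8 CFU/mL suspensions of 24-h cultures, and incubated 48 h at 30° C. MIC was the lowest level preventing growth.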

[1] = tested on: Enterobacter aerogenes (Ea); assay: Minimum inhibitory concentration (MIC) in nutrient agar, Enterobacter aerogenes; conditions: Klebsiella aerogenes
Summary of the method: as §1

Escherichia coli (Ec) = assay: Minimum inhibitory concentration (MIC) in nutrient agar, Escherichia coli; conditions: 48 h
Summary of the method: as §1

[2] = tested on: Klebsiella pneumoniae (Kp); assay: Minimum inhibitory concentration (MIC) in nutrient agar, Klebsiella pneumoniae
Summary of the method: as §1

Proteus vulgaris (Pv) = assay: Minimum inhibitory concentration (MIC) in nutrient agar, Proteus vulgaris
Summary of the method: as §1

[3] = tested on: Pseudomonas aeruginosa (PRD-10); assay: Minimum inhibitory concentration (MIC) in nutrient agar, Pseudomonas aeruginosa PRD-10; conditions: 48 h
Summary of the method: as §1

[4] = tested on: Pseudomonas aeruginosa (Pa); assay: Minimum inhibitory concentration (MIC) in nutrient agar, Pseudomonas aeruginosa; conditions: 30° C., 48 hours, read-out: Minimum Inhibitory Concentration, Pa
Summary of the method: as §1

[5] = tested on: Salmonella choleraesuis (Se); assay: Minimum inhibitory concentration (MIC) in nutrient agar, Salmonella choleraesuis; conditions: Salmonella enterica
Summary of the method: as §1

[6] = tested on: Staphylococcus aureus (Sa); assay: Minimum inhibitory concentration (MIC) in nutrient agar, Staphylococcus aureus
Summary of the method: as §1

Aspergillus niger (An) = assay: Minimum inhibitory concentration (MIC) in malt yeast agar, Aspergillus niger; conditions: pH 5.5; malt yeast agar, 30° C., 72 hours for fungi; read-out: Minimum Inhibitory Concentration, An
Summary of the method: (§2)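 Agar dilution: test compound from a 1% acetone/water solution was mixed into malt yeast agar (pH 5.5) at 48 °C to final […], 25, 10, 5, 2.5, 1.0 and zero ppm. Plates dried 24 h, were replicator-inoculated with 1:9 saline-diluted suspensions of 7-day 30 °C cultures, and were read after 72 h (fungi) or 48 h (yeast) at 30 °C.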

Candida albicans (Ca) = assay: Minimum inhibitory concentration (MIC) in malt yeast agar, Candida albicans
Summary of the method: (§3)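 Growth is scored at 30 °C after 72 h for fungi and 48 h for yeast on malt yeast agar (pH 5.5) containing compound at final levels from 500 down to zero ppm. Organisms are grown 7 days at 30 °C, suspended in saline with octylphenoxy polyethoxy ethanol, and diluted 1:9 before replicator inoculation.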

[7] = tested on: Penicillium chrysogenum (Pc); assay: Minimum inhibitory concentration (MIC) in malt yeast agar, Penicillium chrysogenum; conditions: 72 h, pH 5.5, read-out: Minimum Inhibitory Concentration, PC
Summary of the method: as §2

[8] = tested on: Saccharomyces cerevisiae (Sc); assay: Minimum inhibitory concentration (MIC) in malt yeast agar, Saccharomyces cerevisiae; conditions: pH 5.5, malt yeast agar, 30° C., 48 hours for yeast, read-out: Minimum Inhibitory Concentration, SC
Summary of the method: as §3

Trichoderma viride (Tv) = assay: Minimum inhibitory concentration (MIC) in malt yeast agar, Trichoderma viride; conditions: 72 h, pH 5.5, read-out: Minimum Inhibitory Concentration, Tv
Summary of the method: as §2

[9] = tested on: Aureobasidium pullulan (Ap); assay: Minimum inhibitory concentration (MIC) in malt yeast agar, Aureobasidium pullulan; conditions: pH 5.5; malt yeast agar, 30° C.; read-out: Minimum Inhibitory Concentration, Ap
Summary of the method: as §2

Fusarium oxysporum (Fo) = assay: Minimum inhibitory concentration (MIC) in malt yeast agar, Fusarium oxysporum; conditions: pH 5.5; malt yeast agar, 30° C., 72 hours for fungi; read-out: Minimum Inhibitory Concentration, Fo
Summary of the method: as §2

[10] = 48 h, pH 8.2, read-out: Minimum Inhibitory Concentration, Bs
[11] = pH 6.8, nutrient agar, 30° C., 48 hours, read-out: Minimum Inhibitory Concentration, Bs
[12] = 48 h, pH 6.8, read-out: Minimum Inhibitory Concentration, Ea
[13] = 48 h, pH 8.2, read-out: Minimum Inhibitory Concentration, Ea
[14] = pH 6.8, read-out: Minimum Inhibitory Concentration, Ec
[15] = pH 8.2, read-out: Minimum Inhibitory Concentration, Ec
[16] = 48 h, pH 6.8, read-out: Minimum Inhibitory Concentration, Pv
[17] = 48 h, pH 8.2, read-out: Minimum Inhibitory Concentration, Pv
[18] = pH 6.8, read-out: Minimum Inhibitory Concentration, PRD
[19] = pH 8.2, read-out: Minimum Inhibitory Concentration, PRD
[20] = 48 h, pH 6.8, read-out: Minimum Inhibitory Concentration, SC
[21] = 48 h, pH 8.2, read-out: Minimum Inhibitory Concentration, SC
[22] = 48 h, pH 8.2, read-out: Minimum Inhibitory Concentration, Sa
[23] = pH 6.8, nutrient agar, 30° C., 48 hours, read-out: Minimum Inhibitory Concentration, Sa
[24] = 48 h, pH 8.2, read-out: Minimum Inhibitory Concentration, Kp
[25] = pH 6.8, nutrient agar, 30° C., 48 hours, read-out: Minimum Inhibitory Concentration, Kp
[26] = 48 h, pH 5.5, read-out: Minimum Inhibitory Concentration, Ca

Measured: MIC

N#CSc1nsnc1-c1ccc(Cl)cc1 [Example II, 4-(4-Chlorophenyl)-3-thiocyanato-1,2,5-thiadiazole]
500 µg/mL: Bacillus subtilis (Bs); [10] | [4]; pH 8.2, nutrient agar | [5]; [21] | [6]; [22]
> 500 µg/mL: [1]; [12] | [1]; [13] | Escherichia coli (Ec); [15] | Proteus vulgaris (Pv); [16] | Proteus vulgaris (Pv); [17] | [3]; [18] | [3]; [19] | [4]; pH 6.8, nutrient agar | [5]; [20]
50 µg/mL: Escherichia coli (Ec); [14] | [2]; 48 h, pH 6.8, read-out: Minimum Inhibitory Concentration, Kp
< 10 µg/mL: Aspergillus niger (An) | Candida albicans (Ca); pH 5.5, malt yeast agar, 30° C., 48 hours for yeast, read-out: Minimum Inhibitory Concentration, Ca | [7] | [8] | Trichoderma viride (Tv) | [9] | Fusarium oxysporum (Fo)
250 µg/mL: Bacillus subtilis (Bs); [11] | [2]; pH 8.2, nutrient agar, 30° C., 48 hours, read-out: Minimum Inhibitory Concentration, Kp | [6]; [23]

N#CSc1nsnc1-c1cccs1 [Example XIV, 4-(2-Thiophene)-3-thiocyanato-1,2,5-thiadiazole]
25 µg/mL: Bacillus subtilis (Bs); [11] | [2]; [25] | [6]; [23] | Candida albicans (Ca); [26]
< 10 µg/mL: Aspergillus niger (An) | [7] | [8] | Trichoderma viride (Tv) | [9] | Fusarium oxysporum (Fo)
500 µg/mL: [1]; [13] | Escherichia coli (Ec); [15] | [2]; [24] | Proteus vulgaris (Pv); [17] | [3]; [18] | [3]; [19] | [4]; pH 6.8, nutrient agar | [4]; pH 8.2, nutrient agar | [5]; [21] | [6]; [22]
100 µg/mL: Bacillus subtilis (Bs); pH 8.2, nutrient agar, 30° C., 48 hours, read-out: Minimum Inhibitory Concentration, Bs | [1]; pH 6.8, nutrient agar, 30° C., 48 hours, read-out: Minimum Inhibitory Concentration, Ea
50 µg/mL: Escherichia coli (Ec); [14] | Proteus vulgaris (Pv); pH 6.8, nutrient agar, 30° C., 48 hours, read-out: Minimum Inhibitory Concentration, Pv | [5]; pH 6.8, nutrient agar, 30° C., 48 hours, read-out: Minimum Inhibitory Concentration, SC

CSc1ccc(-c2nsnc2SC#N)cc1 [Example IX, 4-(4-Methylthiophenyl)-3-thiocyanato-1,2,5-thiadiazole]
> 500 µg/mL: [1]; [12] | Escherichia coli (Ec); [14] | [2]; [25] | Proteus vulgaris (Pv); [16] | [3]; [18] | [4]; pH 6.8, nutrient agar | [5]; [20]
50 µg/mL: [6]; 48 h, pH 6.8, read-out: Minimum Inhibitory Concentration, Sa | Candida albicans (Ca); [26]
500 µg/mL: [1]; [13] | Escherichia coli (Ec); [15] | [2]; [24] | Proteus vulgaris (Pv); [17] | [3]; [19] | [4]; pH 8.2, nutrient agar | [5]; [21]
< 10 µg/mL: Bacillus subtilis (Bs); [11] | Aspergillus niger (An) | [7] | [8] | Trichoderma viride (Tv) | [9] | Fusarium oxysporum (Fo)
250 µg/mL: Bacillus subtilis (Bs); [10] | [6]; pH 8.2, nutrient agar, 30° C., 48 hours, read-out: Minimum Inhibitory Concentration, Sa
